Data published in publication PMC9937012 (Journal of Enzyme Inhibition and Medicinal Chemistry, 2023).

What was measured:
human H3R = human H3R (Homo sapiens, UniProt Q9Y5N1); experiment: Human H3R radioligand displacement assay; conditions: for inhibition at 1 µM: read-out: hH3R Inhibition at 1 µM [%] ±SD (n)
human H1R = human H1R (Homo sapiens, UniProt P35367); experiment: Human H1R radioligand displacement assay; format: binding; conditions: for inhibition at 10 µM: read-out: hH1R Inhibition at 10 µM [%] ±SD (n); for inhibition at 1 µM: read-out: hH1R Inhibition at 1 µM [%] (n)
human H4R = human H4R (Homo sapiens, UniProt Q9H3N8); experiment: Human H4R radioligand displacement assay; conditions: read-out: hH4R Inhibition at 10 µM [%] (n)
human AChE = human AChE (Homo sapiens, UniProt P22303); experiment: Inhibition of AChE; format: biochemical; conditions: for inhibition at 10 µM: read-out: AChE Inhibition at 10 µM [%]
Sequence of human AChE (P22303 32-614): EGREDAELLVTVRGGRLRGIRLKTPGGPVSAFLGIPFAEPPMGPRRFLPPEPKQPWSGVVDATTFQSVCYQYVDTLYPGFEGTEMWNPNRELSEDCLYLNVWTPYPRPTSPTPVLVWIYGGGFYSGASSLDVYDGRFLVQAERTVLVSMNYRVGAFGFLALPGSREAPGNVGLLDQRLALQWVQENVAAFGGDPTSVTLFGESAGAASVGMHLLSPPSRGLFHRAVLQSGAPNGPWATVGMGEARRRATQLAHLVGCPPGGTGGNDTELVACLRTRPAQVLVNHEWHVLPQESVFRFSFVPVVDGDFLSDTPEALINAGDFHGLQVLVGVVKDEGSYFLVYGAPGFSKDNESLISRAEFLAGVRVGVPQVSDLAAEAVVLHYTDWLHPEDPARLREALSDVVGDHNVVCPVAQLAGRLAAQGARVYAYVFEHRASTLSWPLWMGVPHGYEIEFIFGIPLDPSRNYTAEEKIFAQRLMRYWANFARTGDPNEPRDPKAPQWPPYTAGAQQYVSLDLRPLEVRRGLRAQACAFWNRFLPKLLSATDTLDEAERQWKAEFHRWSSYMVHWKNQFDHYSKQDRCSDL

Sequence of human H3R (Q9Y5N1 whole entry): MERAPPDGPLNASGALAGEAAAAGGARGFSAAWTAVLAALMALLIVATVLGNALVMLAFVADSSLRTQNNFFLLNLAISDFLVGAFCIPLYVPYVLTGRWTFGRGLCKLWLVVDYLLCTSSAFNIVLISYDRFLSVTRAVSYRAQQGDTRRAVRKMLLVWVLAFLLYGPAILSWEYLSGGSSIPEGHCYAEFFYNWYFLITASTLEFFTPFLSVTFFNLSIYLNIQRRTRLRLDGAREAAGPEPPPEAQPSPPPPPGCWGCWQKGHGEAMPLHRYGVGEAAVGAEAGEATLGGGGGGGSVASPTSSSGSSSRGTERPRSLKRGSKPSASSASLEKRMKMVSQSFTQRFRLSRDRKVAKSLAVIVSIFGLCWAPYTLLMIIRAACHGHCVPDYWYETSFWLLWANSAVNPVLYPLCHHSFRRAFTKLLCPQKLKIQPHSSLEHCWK
Sequence of human H1R (P35367 whole entry): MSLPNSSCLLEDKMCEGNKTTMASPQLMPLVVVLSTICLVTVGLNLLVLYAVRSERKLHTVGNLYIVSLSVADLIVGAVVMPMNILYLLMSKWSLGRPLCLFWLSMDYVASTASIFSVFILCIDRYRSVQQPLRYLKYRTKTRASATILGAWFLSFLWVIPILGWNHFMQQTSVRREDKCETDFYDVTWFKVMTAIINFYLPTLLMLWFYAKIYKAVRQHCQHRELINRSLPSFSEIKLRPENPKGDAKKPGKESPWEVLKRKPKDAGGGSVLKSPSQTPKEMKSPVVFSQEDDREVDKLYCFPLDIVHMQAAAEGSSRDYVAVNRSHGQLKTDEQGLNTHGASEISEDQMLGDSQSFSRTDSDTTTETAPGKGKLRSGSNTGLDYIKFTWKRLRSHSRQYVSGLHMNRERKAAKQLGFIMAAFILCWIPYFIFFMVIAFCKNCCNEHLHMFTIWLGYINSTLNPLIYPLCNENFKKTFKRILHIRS
Sequence of human H4R (Q9H3N8 whole entry): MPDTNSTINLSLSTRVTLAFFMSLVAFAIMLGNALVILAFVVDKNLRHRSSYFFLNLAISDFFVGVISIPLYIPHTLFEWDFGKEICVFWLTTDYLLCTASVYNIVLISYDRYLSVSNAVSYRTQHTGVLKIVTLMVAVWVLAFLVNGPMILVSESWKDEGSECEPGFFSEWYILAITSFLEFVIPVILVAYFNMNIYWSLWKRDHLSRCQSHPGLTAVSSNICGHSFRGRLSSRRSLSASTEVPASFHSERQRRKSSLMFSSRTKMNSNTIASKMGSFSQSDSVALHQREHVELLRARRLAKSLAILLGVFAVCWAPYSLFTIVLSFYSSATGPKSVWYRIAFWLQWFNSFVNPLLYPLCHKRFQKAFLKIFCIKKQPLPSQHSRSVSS

Row | Compound | inhibition at 1 µM (human H3R) [%] | inhibition at 10 µM (human H1R) [%] | inhibition at 10 µM (human H4R) [%] | IC50 (human AChE) [µM] | inhibition at 10 µM (human AChE) [%] | Ki (human H3R) [µM] | inhibition at 1 µM (human H1R) [%]
1 | CCOC(=O)c1nc2ccc(OCCN3CCOCC3)cc2s1 [Compound 1a, Ethyl 6-(2-morpholinoethoxy)benzo[d]thiazole-2-carboxylate] | 63.3 ± 4.2 | < 0 | 39.2 ± 34.7 | > 10 | 7.64 ± 7.33 | – | –
2 | CCOC(=O)c1nc2ccc(OCCN3CCCCC3)cc2s1 [Compound 1b, Ethyl 6-(2-(piperidin-1-yl)ethoxy)benzo[d]thiazole-2-carboxylate] | 35.2 ± 14.4 | < 0 | 61.7 ± 35.4 | > 10 | 9.25 ± 7.88 | – | –
3 | CCOC(=O)c1nc2ccc(OCCN3CCCC3)cc2s1 [Compound 1c, Ethyl 6-(2-(pyrrolidin-1-yl)ethoxy)benzo[d]thiazole-2-carboxylate] | 50.2 ± 10.9 | 1 ± 9.7 | 54 ± 12.1 | 7.63 ± 1.6 | 57.2 ± 5.41 | – | –
4 | COC(=O)c1nc2ccc(OCCN3CCOCC3)cc2s1 [Compound 1d, Methyl 6-(2-morpholinoethoxy)benzo[d]thiazole-2-carboxylate] | 25.3 ± 5.4 | 11.2 ± 10.5 | 51.3 ± 18.2 | > 10 | 5.52 ± 6.39 | – | –
5 | COC(=O)c1nc2ccc(OCCN3CCCCC3)cc2s1 [Compound 1e, Methyl 6-(2-(piperidin-1-yl)ethoxy)benzo[d]thiazole-2-carboxylate] | 54.2 ± 28.4 | 16.3 ± 41.7 | – | 2.92 ± 0.37 | 84 ± 4.25 | – | –
6 | COC(=O)c1nc2ccc(OCCCN[C@@H](Cc3ccc(O)cc3)C(=O)OC)cc2s1 [Compound 2a, Methyl (S)-6-(3-((3-(4-hydroxyphenyl)-1-methoxy-1-oxopropan-2-yl)amino)propoxy)benzo[d]thiazole-2-carboxylate] | 54.8 ± 21.2 | < 0 | 35.5 ± 32.1 | > 10 | < 0 | – | –
7 | O=C(c1nc2ccc(OCCN3CCCCC3)cc2s1)N1CCCCC1 [Compound 3a, Piperidin-1-yl-(6-(2-(piperidin-1-yl)ethoxy)benzo[d]thiazol-2-yl)methanone] | 68 ± 9.1 | < 0 | 30.3 ± 24.9 | > 10 | 35.5 ± 13.4 | > 1 | –
8 | O=C(NCC1CCCCC1)c1nc2ccc(OCCNCC3CCCCC3)cc2s1 [Compound 3c, N-(Cyclohexylmethyl)-6-(2-((cyclohexylmethyl)amino)ethoxy)benzo[d]thiazole-2-carboxamide] | 31.5 ± 11.4 | 5.3 ± 14.2 | 52.8 ± 11.8 | > 10 | < 0 | – | –
9 | O=C(NC1CCCCCC1)c1nc2ccc(OCCCNC3CCCCCC3)cc2s1 [Compound 3e, N-Cycloheptyl-6-(3-(cycloheptylamino)propoxy)benzo[d]thiazole-2-carboxamide] | 35.7 ± 11.5 | 12.1 ± 18.3 | 53.5 ± 15.2 | > 10 | 7.3 ± 2.31 | – | –
10 | O=C(NCC1CCCCC1)c1nc2ccc(OCCCNCC3CCCCC3)cc2s1 [Compound 3f, N-(Cyclohexylmethyl)-6-(3-((cyclohexylmethyl)amino)propoxy)benzo[d]thiazole-2-carboxamide] | 46.3 ± 14.7 | 47.6 ± 12.9 | 60.8 ± 30.4 | > 10 | 3.2 ± 3.69 | – | –
11 | O=C(NC1CC1)c1nc2ccc(OCCCNC3CC3)cc2s1 [Compound 3g, N-Cyclopropyl-6-(3-(cyclopropylamino)propoxy)benzo[d]thiazole-2-carboxamide] | 27.7 ± 12.8 | 13.6 ± 10.7 | 30.2 ± 14.3 | > 10 | 15.4 ± 11.2 | – | –
12 | O=C(NC1CCCC1)c1nc2ccc(OCCCNC3CCCC3)cc2s1 [Compound 3i, N-Cyclopentyl-6-(3-(cyclopentylamino)propoxy)benzo[d]thiazole-2-carboxamide] | 51.2 ± 8.7 | 35.5 ± 9.8 | 50.5 ± 13 | 7.31 ± 1.59 | 59 ± 6.16 | – | –
13 | O=C(NC1CCCCCC1)c1nc2ccc(OCCCCNC3CCCCCC3)cc2s1 [Compound 3k, N-Cycloheptyl-6-(4-(cycloheptylamino)butoxy)benzo[d]thiazole-2-carboxamide] | 39 ± 8.9 | 14.2 ± 11.7 | 61.5 ± 8.9 | > 10 | 9.7 ± 4.91 | – | –
14 | O=C(NCC1CCCCC1)c1nc2ccc(OCCCCNCC3CCCCC3)cc2s1 [Compound 3l, N-(Cyclohexylmethyl)-6-(4-((cyclohexylmethyl)amino)butoxy)benzo[d]thiazole-2-carboxamide] | 57.3 ± 12.7 | 14.7 ± 8.5 | 49.7 ± 41 | > 10 | 16.7 ± 7.79 | – | –
15 | O=C(NC1CC1)c1nc2ccc(OCCCCNC3CC3)cc2s1 [Compound 3m, N-Cyclopropyl-6-(4-(cyclopropylamino)butoxy)benzo[d]thiazole-2-carboxamide] | 67.8 ± 2.5 | 27 ± 10.6 | 53.6 ± 11.1 | > 10 | 13.2 ± 8.07 | – | –
16 | O=C(NC1CCCCCC1)c1nc2ccc(OCCCCCNC3CCCCCC3)cc2s1 [Compound 3p, N-Cycloheptyl-6-((5-(cycloheptylamino)pentyl)oxy)benzo[d]thiazole-2-carboxamide] | 34 ± 7.5 | 17.5 ± 8.4 | 58.4 ± 8.3 | > 10 | 9.5 ± 3.58 | – | –
17 | O=C(NCC1CCCCC1)c1nc2ccc(OCCCCCNCC3CCCCC3)cc2s1 [Compound 3q, N-(Cyclohexylmethyl)-6-((5-((cyclohexylmethyl)amino)pentyl)oxy)benzo[d]thiazole-2-carboxamide] | – | 40.6 ± 8.2 | 49.1 ± 22.8 | > 10 | 22.2 ± 5.5 | > 3 | –
18 | O=C(NC1CC1)c1nc2ccc(OCCCCCNC3CC3)cc2s1 [Compound 3r, N-Cyclopropyl-6-((5-(cyclopropylamino)pentyl)oxy)benzo[d]thiazole-2-carboxamide] | 38.8 ± 9.7 | 23.7 ± 12.7 | 51.6 ± 15.8 | > 10 | 14.8 ± 6.73 | – | –
19 | CC1CC(C)CN(CCCOc2ccc3nc(C(=O)N4CC(C)CC(C)C4)sc3c2)C1 (stereo not shown) [Compound 4c, (3,5-Dimethylpiperidin-1-yl)(6-(3-(3,5-dimethylpiperidin-1-yl)propoxy)benzo[d]thiazol-2-yl)methanone] | – | – | – | > 10 | 6.9 ± 1.67 | 0.34 | 26.8 ± 31
20 | O=C(NCCc1ccccc1)c1nc2ccc(OCCCNCCc3ccccc3)cc2s1 [Compound 4d, N-Phenethyl-6-(3-(phenethylamino)propoxy)benzo[d]thiazole-2-carboxamide] | – | – | – | > 10 | 5.2 ± 2.36 | > 1 | 10.9 ± 37.1
21 | O=C(c1nc2ccc(OCCCN3CCc4ccccc4C3)cc2s1)N1CCc2ccccc2C1 [Compound 4e, (3,4-Dihydroisoquinolin-2(1H)-yl)(6-(3-(3,4-dihydroisoquinolin-2(1H)-yl)propoxy)benzo[d]thiazol-2-yl)methanone] | – | – | – | > 10 | 6.2 ± 3.15 | 0.34 | 9.7 ± 23
22 | CCN1CCN(CCCOc2ccc3nc(C(=O)N4CCN(CC)CC4)sc3c2)CC1 [Compound 4f, (4-Ethylpiperazin-1-yl)(6-(3-(4-ethylpiperazin-1-yl)propoxy)benzo[d]thiazol-2-yl)methanone] | – | – | – | > 10 | 8.2 ± 1.64 | 0.43 | 3 ± 36
23 | CN1CCN(CCCOc2ccc3nc(C(=O)N4CCN(C)CC4)sc3c2)CC1 [Compound 4g, (4-Methylpiperazin-1-yl)(6-(3-(4-methylpiperazin-1-yl)propoxy)benzo[d]thiazol-2-yl)methanone] | – | – | – | > 10 | 7.7 ± 1.87 | > 1 | 4.8 ± 37.7
24 | CC1CN(CCCOc2ccc3nc(C(=O)N4CCNC(C)C4)sc3c2)CCN1 (stereo not shown) [Compound 4h, (3-Methylpiperazin-1-yl)(6-(3-(3-methylpiperazin-1-yl)propoxy)benzo[d]thiazol-2-yl)methanone] | – | – | – | > 10 | 8.3 ± 1.02 | 0.47 | 18.4 ± 27
25 | O=C(c1nc2ccc(OCCCN3CCN(CCO)CC3)cc2s1)N1CCN(CCO)CC1 [Compound 4i, (4-(2-Hydroxyethyl)piperazin-1-yl)(6-(3-(4-(2-hydroxyethyl)piperazin-1-yl)propoxy)benzo[d]thiazol-2-yl)methanone] | – | – | – | > 10 | 7.3 ± 2.77 | 0.12 | 22.5 ± 27.4
26 | O=C(NCc1ccccc1)c1nc2ccc(OCCCNCc3ccccc3)cc2s1 [Compound 4j, N-Benzyl-6-(3-(benzylamino)propoxy)benzo[d]thiazole-2-carboxamide] | – | – | – | > 10 | 20.3 ± 3.55 | 0.64 | 27 ± 39.4
27 | CC1CCN(CCCOc2ccc3nc(C(=O)N4CCC(C)CC4)sc3c2)CC1 [Compound 4l, (4-Methylpiperidin-1-yl)(6-(3-(4-methylpiperidin-1-yl)propoxy)benzo[d]thiazol-2-yl)methanone] | – | – | – | > 10 | 8.4 ± 0.51 | 0.43 | 26.8 ± 26.3
28 | CC(=O)N1CCN(CCCOc2ccc3nc(C(=O)N4CCN(C(C)=O)C(C)C4)sc3c2)CC1C (stereo not shown) [Compound 4m, 1-(4-(6-(3-(4-Acetyl-3-methylpiperazin-1-yl)propoxy)benzo[d]thiazole-2-carbonyl)-2-methylpiperazin-1-yl)ethan-1-one] | – | – | – | > 10 | 2.4 ± 2.06 | 0.4 | 27 ± 27.6
